Reference: US20160046618A1, “Cyclopropyl Fused Thiazin-2-Amine Compounds as Beta-Secretase Inhibitors and Methods of Use” (AMGEN INC., priority 2014, published 2016)
Like-named read-outs stand apart in the source and are kept apart here.

Columns and labels:
[1] = target: human recombinant BACE1 (Homo sapiens (Human), UniProt P56817); assay: In vitro enzymatic BACE1 FRET assay; format: biochemical; settings: read-out: IC50 IP (μM) BACE1 enzyme
In short: (§1)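 Ni-NTA-purified recombinant protease incubated with compound; reaction started with 50 nM FRET peptide substrate (fluorophore/quencher flanking the BACE cleavage site) and run 1 h. Stopped with Tris buffer raising pH to neutral; fluorescence read at ex 488/em 590 nm.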

[2] = target: human recombinant BACE2 (Homo sapiens (Human), UniProt Q9Y5Z0); assay: In vitro enzymatic BACE2 FRET assay; format: biochemical; settings: read-out: IC50 IP (μM) BACE2 enzyme
In short: as §1

[3] = tested on: Aβ40 in conditioned medium of cells stably expressing Amyloid Precursor Protein (APP); assay: In vitro BACE-1 cell-based assay (Aβ40 sandwich ELISA); settings: read-out: IC50 IP (μM) BACE1 cell
In short: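 APP-expressing cells treated 24 h at 37 °C with compound in 10-point dose response (top 100 μM or 10 μM, 0.1% DMSO final). Secreted Aβ40 in conditioned medium quantified by sandwich ELISA (pAb40 capture, biotinylated 6E10 detection, time-resolved europium fluorescence); IC50 from percent inhibition versus concentration.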

[4] = target: Recombinant Cat D (Homo sapiens (Human), UniProt P07339); assay: In vitro enzymatic Cathepsin D (Cat D) FRET assay; format: biochemical; settings: read-out: IC50 IP (μM) CatD
In short: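 CHO-expressed enzyme; buffer 0.05 M citrate pH 3.5, 5 mM CHAPS, 10% DMSO final. Start with FRET substrate 20 nM, 1 h incubation, Tris stop (pH to neutral), fluorescence ex 500 nm/em 580 nm.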

human recombinant BACE2, sequence (Q9Y5Z0 63-518): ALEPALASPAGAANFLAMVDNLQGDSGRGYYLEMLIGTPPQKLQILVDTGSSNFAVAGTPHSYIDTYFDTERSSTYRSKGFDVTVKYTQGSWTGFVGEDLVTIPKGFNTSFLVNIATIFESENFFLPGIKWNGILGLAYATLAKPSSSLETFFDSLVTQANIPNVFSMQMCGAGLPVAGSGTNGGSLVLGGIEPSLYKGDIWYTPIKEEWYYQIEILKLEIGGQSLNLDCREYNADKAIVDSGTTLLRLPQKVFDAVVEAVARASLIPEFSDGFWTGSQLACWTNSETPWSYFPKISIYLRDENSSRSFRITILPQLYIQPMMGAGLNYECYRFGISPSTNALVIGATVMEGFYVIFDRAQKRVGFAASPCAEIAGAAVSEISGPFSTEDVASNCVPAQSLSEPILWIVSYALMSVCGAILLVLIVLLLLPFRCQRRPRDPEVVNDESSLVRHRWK
Recombinant Cat D, sequence (P07339 65-412): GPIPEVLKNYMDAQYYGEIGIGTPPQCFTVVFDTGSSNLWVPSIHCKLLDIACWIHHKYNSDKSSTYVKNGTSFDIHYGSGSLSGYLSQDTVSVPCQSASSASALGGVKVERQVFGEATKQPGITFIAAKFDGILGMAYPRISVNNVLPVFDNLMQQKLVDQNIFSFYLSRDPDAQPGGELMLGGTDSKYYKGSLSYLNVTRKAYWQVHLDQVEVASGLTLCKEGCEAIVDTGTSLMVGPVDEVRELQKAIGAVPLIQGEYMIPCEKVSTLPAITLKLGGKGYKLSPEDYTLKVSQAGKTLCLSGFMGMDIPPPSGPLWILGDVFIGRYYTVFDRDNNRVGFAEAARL
human recombinant BACE1, sequence (P56817 46-501): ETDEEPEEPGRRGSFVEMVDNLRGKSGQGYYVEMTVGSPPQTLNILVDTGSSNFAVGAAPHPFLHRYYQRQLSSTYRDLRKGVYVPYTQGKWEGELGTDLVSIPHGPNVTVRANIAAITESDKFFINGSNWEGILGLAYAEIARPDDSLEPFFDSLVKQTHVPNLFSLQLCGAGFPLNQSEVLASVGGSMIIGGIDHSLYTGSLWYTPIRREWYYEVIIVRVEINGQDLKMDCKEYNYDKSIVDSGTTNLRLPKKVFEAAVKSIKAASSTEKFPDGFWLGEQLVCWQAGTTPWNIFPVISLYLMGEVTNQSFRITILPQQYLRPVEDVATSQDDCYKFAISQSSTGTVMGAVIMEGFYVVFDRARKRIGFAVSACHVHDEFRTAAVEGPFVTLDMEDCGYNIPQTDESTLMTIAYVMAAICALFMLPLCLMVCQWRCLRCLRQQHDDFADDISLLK

IC50 [1] | IC50 [2] | IC50 [3] | IC50 [4] | IC50 ([1]; BACE1 FRET enzyme assay) | IC50 ([2]; BACE2 FRET enzyme assay) | IC50 ([3]; BACE1 cell-based assay) | IC50 ([4]; Cathepsin D FRET enzyme assay) | SMILES
0.000317 µM | 0.0159 µM | 0.00621 µM | 55.6 µM | – | – | – | – | C#CCOc1cnc(C(=O)Nc2cc(F)c(F)c([C@@]3(C)N=C(N)S[C@@]4(CNC(C)=O)C[C@H]43)c2)cn1 [Example 1042, N-(3-((1S,5S,6S)-1-(acetamidomethyl)-3-amino-5-methyl-2-thia-4-azabicyclo[4.1.0]hept-3-en-5-yl)-4,5-difluorophenyl)-5-(prop-2-yn-1-yloxy)pyrazine-2-carboxamide]
0.00343 µM | 0.0463 µM | 0.0017 µM | 1530 µM | – | – | – | – | COC[C@]12C[C@H]1[C@@](C)(c1cc(Nc3nccc4nc(OCc5ncco5)cnc34)cnc1F)N=C(N)S2 [Example 849, N-(5-((1S,5S,6S)-3-amino-1-(methoxymethyl)-5-methyl-2-thia-4-azabicyclo[4.1.0]hept-3-en-5-yl)-6-fluoro-3-pyridinyl)-2-(1,3-oxazol-2-ylmethoxy)pyrido[3,4-b]pyrazin-5-amine]
0.000885 µM | 0.0213 µM | 0.000575 µM | 7.08 µM | – | – | – | – | C#CCOc1cnc(C(=O)Nc2ccc(F)c([C@@]3(C)N=C(N)S[C@@]4(C(=O)NC(C)(C)CF)C[C@H]43)c2)cn1 [Example 1006, (1S,5S,6S)-3-amino-N-(1-fluoro-2-methylpropan-2-yl)-5-(2-fluoro-5-(5-(prop-2-yn-1-yloxy)pyrazine-2-carboxamido)phenyl)-5-methyl-2-thia-4-azabicyclo[4.1.0]hept-3-ene-1-carboxamide]
0.0268 µM | 0.517 µM | 0.0174 µM | 352 µM | – | – | – | – | COCCOc1cnc2c(Nc3cc(F)c(F)c([C@@]4(C)N=C(N)S[C@@]5(COC)C[C@H]54)c3)ncnc2c1 [Example 946, N-(3-((1S,5S,6S)-3-amino-1-(methoxymethyl)-5-methyl-2-thia-4-azabicyclo[4.1.0]hept-3-en-5-yl)-4,5-difluorophenyl)-7-(2-methoxyethoxy)pyrido[3,2-d]pyrimidin-4-amine]
0.0678 µM | 0.346 µM | 0.0156 µM | 2520 µM | – | – | – | – | C#CCOc1cnc2c(Nc3cc(C(=O)OC)c(F)c([C@@]4(C)N=C(N)S[C@@]5(CO)C[C@H]54)c3)nccc2n1 [Example 857, methyl 3-((1S,5S,6S)-3-amino-1-(hydroxymethyl)-5-methyl-2-thia-4-azabicyclo[4.1.0]hept-3-en-5-yl)-2-fluoro-5-((2-(prop-2-yn-1-yloxy)pyrido[3,4-b]pyrazin-5-yl)amino)benzoate]
0.001 µM | 0.0987 µM | 0.017 µM | 291 µM | – | – | – | – | COC[C@]12C[C@H]1[C@@](C)(c1cc(NC(=O)c3cnc(OCc4nc(C)no4)cn3)cc(C)c1F)N=C(N)S2 [Example 1044, N-(3-((1S,5S,6S)-3-amino-1-(methoxymethyl)-5-methyl-2-thia-4-azabicyclo[4.1.0]hept-3-en-5-yl)-4-fluoro-5-methylphenyl)-5-((3-methyl-1,2,4-oxadiazol-5-yl)methoxy)-2-pyrazinecarboxamide]
0.00176 µM | 0.222 µM | 0.00692 µM | 324 µM | – | – | – | – | CC1(NC(=O)[C@]23C[C@H]2[C@@](C)(c2cc(NC(=O)c4cnc(OCC(F)(F)F)cn4)ccc2F)N=C(N)S3)CC1 [Example 1041, (1S,5S,6S)-3-amino-5-(2-fluoro-5-(5-(2,2,2-trifluoroethoxy)pyrazine-2-carboxamido)phenyl)-5-methyl-N-(1-methylcyclopropyl)-2-thia-4-azabicyclo[4.1.0]hept-3-ene-1-carboxamide]
0.00299 µM | 0.0842 µM | 0.00128 µM | 1840 µM | – | – | – | – | C#CCOc1cnc2c(Nc3ccc(F)c([C@@]4(C)N=C(N)S[C@@]5(CF)C[C@H]54)c3)ncnc2c1 [Example 824, N-(3-((1S,5S,6S)-3-amino-1-(fluoromethyl)-5-methyl-2-thia-4-azabicyclo[4.1.0]hept-3-en-5-yl)-4-fluorophenyl)-7-(2-propyn-1-yloxy)pyrido[3,2-d]pyrimidin-4-amine]

The next lines start with the compound.

SMILES | IC50 [1] | IC50 [2] | IC50 [3] | IC50 [4] | IC50 ([1]; BACE1 FRET enzyme assay) | IC50 ([2]; BACE2 FRET enzyme assay) | IC50 ([3]; BACE1 cell-based assay) | IC50 ([4]; Cathepsin D FRET enzyme assay)
COCCOc1cnc2c(Nc3ccc(F)c([C@@]4(CF)N=C(N)S[C@@]5(CF)C[C@H]54)c3)nccc2n1 [Example 635, N-(3-((1S,5S,6S)-3-amino-1,5-bis(fluoromethyl)-2-thia-4-azabicyclo[4.1.0]hept-3-en-5-yl)-4-fluorophenyl)-2-(2-methoxyethoxy)pyrido[3,4-b]pyrazin-5-amine] | 0.00832 µM | 0.192 µM | 0.0208 µM | > 400 µM | – | – | – | –
C[C@]1(c2cc(NC(=O)c3ccc(Cl)cn3)cnc2F)N=C(N)S[C@@]2(CO)C[C@H]21 [Example 100, N-(5-((1S,5S,6S)-3-amino-1-(hydroxymethyl)-5-methyl-2-thia-4-azabicyclo[4.1.0]hept-3-en-5-yl)-6-fluoropyridin-3-yl)-5-chloropicolinamide] | – | – | – | – | 0.0225 µM | 0.0038 µM | 0.0112 µM | > 400 µM
C#CCOc1cnc2c(Nc3ccc(F)c([C@@]4(CF)N=C(N)S[C@@]5(/C=C/C(=O)N(C)C)C[C@H]54)c3)ncnc2c1 [Example 776, (2E)-3-((1R,5S,6S)-3-amino-5-(fluoromethyl)-5-(2-fluoro-5-((7-(2-propyn-1-yloxy)pyrido[3,2-d]pyrimidin-4-yl)amino)phenyl)-2-thia-4-azabicyclo[4.1.0]hept-3-en-1-yl)-N,N-dimethyl-2-propenamide] | 0.0012 µM | 0.0264 µM | 0.00305 µM | 293 µM | – | – | – | –
COC[C@]12C[C@H]1[C@@](C)(c1cc(Nc3nccc4cc(OCc5nccs5)cnc34)cc(F)c1F)N=C(N)S2 [Example 737, N-(3-((1S,5S,6S)-3-amino-1-(methoxymethyl)-5-methyl-2-thia-4-azabicyclo[4.1.0]hept-3-en-5-yl)-4,5-difluorophenyl)-3-(1,3-thiazol-2-ylmethoxy)-1,7-naphthyridin-8-amine] | 0.0325 µM | 0.693 µM | 0.274 µM | 1500 µM | – | – | – | –
Cc1cc(C#N)cnc1C(=O)Nc1ccc(F)c([C@@]2(CF)N=C(N)S[C@@]3(CO)C[C@H]32)c1 [Example 44, N-(3-((1S,5S,6S)-3-amino-5-(fluoromethyl)-1-(hydroxymethyl)-2-thia-4-azabicyclo[4.1.0]hept-3-en-5-yl)-4-fluorophenyl)-5-cyano-3-methyl-2-pyridinecarboxamide] | – | – | – | – | 0.00255 µM | 0.00147 µM | 0.00215 µM | > 400 µM
C#CCOc1cnc2c(Nc3ccc(F)c([C@@]4(C)N=C(N)S[C@@]5(C(=O)N6CCCC6)C[C@H]54)c3)nccc2n1 [Example 632, N-(3-((1S,5S,6S)-3-amino-5-methyl-1-(1-pyrrolidinylcarbonyl)-2-thia-4-azabicyclo[4.1.0]hept-3-en-5-yl)-4-fluorophenyl)-2-(2-propyn-1-yloxy)pyrido[3,4-b]pyrazin-5-amine] | 0.000715 µM | 0.00302 µM | 0.000535 µM | 961 µM | – | – | – | –
C#CCOc1cnc2c(Nc3cnc(F)c([C@@]4(C)N=C(N)S[C@H]5C[C@H]54)c3)nccc2n1 [Example 639, (1S,5S,6S)-5-(2-fluoro-5-((2-(prop-2-yn-1-yloxy)pyrido[3,4-b]pyrazin-5-yl)amino)pyridin-3-yl)-5-methyl-2-thia-4-azabicyclo[4.1.0]hept-3-en-3-amine] | 0.00157 µM | 0.0401 µM | 0.00213 µM | 381 µM | – | – | – | –
COC[C@]12C[C@H]1[C@@](C)(c1cc(NC(=O)c3ncc(OCC(F)(F)F)cc3C)ccc1F)N=C(N)S2 [Example 681, N-(3-((1S,5S,6S)-3-amino-1-(methoxymethyl)-5-methyl-2-thia-4-azabicyclo[4.1.0]hept-3-en-5-yl)-4-fluorophenyl)-3-methyl-5-(2,2,2-trifluoroethoxy)-2-pyridinecarboxamide] | 0.0109 µM | 0.789 µM | 0.0555 µM | 1450 µM | – | – | – | –
NC1=N[C@](CF)(c2cc(NC(=O)c3ccc(Cl)cn3)ccc2F)[C@@H]2C[C@]2(CF)S1 [Example 41, N-(3-((1S,5S,6S)-3-amino-1,5-bis(fluoromethyl)-2-thia-4-azabicyclo[4.1.0]hept-3-en-5-yl)-4-fluorophenyl)-5-chloro-2-pyridinecarboxamide] | – | – | – | – | 0.00227 µM | < 0.00203 µM | 0.00596 µM | > 400 µM
CNC(=O)[C@]12C[C@H]1[C@@](C)(c1cc(NC(=O)c3ncc(OCC(F)(F)F)cc3C)cc(F)c1F)N=C(N)S2 [Example 702, (1S,5S,6S)-3-amino-5-(2,3-difluoro-5-(((3-methyl-5-(2,2,2-trifluoroethoxy)-2-pyridinyl)carbonyl)amino)phenyl)-N,5-dimethyl-2-thia-4-azabicyclo[4.1.0]hept-3-ene-1-carboxamide] | 0.000986 µM | 0.269 µM | 0.0344 µM | 362 µM | – | – | – | –
